Measured values taken from ChEMBL document CHEMBL4043280, “Preparation of 5'-deoxy-5'-amino-5'-C-methyl adenosine derivatives and their activity against DOT1L” (Bioorg Med Chem Lett, 2017).

molecular target: Histone-lysine N-methyltransferase, H3 lysine-79 specific (Homo sapiens, UniProt Q8TEK3); assay: Inhibition of recombinant human N-terminal GST-tagged DOT1L (2 to 416 residues) expressed in Escherichia coli assessed as reduction in histone H3 lysine-N-methyltransferase activity using nucleosomes after 3 hrs in presence of SAM by AlphLisa assay
Sequence (Q8TEK3 whole entry, the tested form may be a part): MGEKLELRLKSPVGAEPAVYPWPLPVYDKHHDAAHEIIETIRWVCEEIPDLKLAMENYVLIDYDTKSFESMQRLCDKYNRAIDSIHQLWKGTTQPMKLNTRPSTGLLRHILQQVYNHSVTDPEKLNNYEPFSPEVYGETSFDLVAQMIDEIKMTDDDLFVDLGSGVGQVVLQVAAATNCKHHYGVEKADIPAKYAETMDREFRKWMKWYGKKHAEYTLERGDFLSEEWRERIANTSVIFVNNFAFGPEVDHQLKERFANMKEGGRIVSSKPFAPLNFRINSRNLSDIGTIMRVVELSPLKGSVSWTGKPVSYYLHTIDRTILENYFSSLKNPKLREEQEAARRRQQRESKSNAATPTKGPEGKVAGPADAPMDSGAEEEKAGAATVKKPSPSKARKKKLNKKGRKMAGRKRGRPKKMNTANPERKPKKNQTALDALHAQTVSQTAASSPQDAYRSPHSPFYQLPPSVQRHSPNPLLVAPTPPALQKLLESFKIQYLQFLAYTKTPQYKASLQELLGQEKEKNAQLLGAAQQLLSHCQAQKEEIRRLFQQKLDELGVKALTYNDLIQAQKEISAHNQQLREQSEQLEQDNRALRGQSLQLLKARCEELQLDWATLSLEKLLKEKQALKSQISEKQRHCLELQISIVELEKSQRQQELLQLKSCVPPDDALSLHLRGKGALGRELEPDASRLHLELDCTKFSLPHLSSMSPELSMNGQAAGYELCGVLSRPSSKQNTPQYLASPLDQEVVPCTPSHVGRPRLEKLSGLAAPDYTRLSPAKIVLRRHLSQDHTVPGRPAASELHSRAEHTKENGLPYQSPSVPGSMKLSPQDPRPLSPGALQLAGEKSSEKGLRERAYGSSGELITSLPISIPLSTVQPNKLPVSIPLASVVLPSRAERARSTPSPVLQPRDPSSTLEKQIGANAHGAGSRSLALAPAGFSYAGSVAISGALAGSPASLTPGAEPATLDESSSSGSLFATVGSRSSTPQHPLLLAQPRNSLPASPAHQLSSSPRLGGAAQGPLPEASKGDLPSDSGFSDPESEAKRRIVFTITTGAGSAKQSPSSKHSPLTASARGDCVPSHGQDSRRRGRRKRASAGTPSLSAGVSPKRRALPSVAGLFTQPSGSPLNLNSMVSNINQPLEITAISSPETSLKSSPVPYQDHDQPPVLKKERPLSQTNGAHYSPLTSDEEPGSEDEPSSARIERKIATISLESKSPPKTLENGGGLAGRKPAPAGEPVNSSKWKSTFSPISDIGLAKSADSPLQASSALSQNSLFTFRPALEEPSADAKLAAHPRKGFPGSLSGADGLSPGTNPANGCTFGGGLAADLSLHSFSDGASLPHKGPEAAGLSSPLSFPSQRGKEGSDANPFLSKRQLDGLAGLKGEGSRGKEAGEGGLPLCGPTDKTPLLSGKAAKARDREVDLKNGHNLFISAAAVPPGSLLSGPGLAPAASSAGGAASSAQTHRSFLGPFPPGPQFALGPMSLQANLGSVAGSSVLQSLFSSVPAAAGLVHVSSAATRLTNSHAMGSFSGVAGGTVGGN

IC50 [µM]	Structure (SMILES)
1.43	C[C@@H]([C@H]1O[C@@H](n2cnc3c(N)ncnc32)[C@H](O)[C@@H]1O)N(C1CCC1)C1CC(CCc2nc3cc(C(C)(C)C)ccc3[nH]2)C1 (some centres undefined)
0.69	C[C@H](NC1CC(CCc2nc3cc(C(C)(C)C)ccc3[nH]2)C1)[C@H]1O[C@@H](n2cnc3c(N)ncnc32)[C@H](O)[C@@H]1O (some centres undefined)
0.00634	CC(C)N(CCCNC(=O)Nc1ccc(C(C)(C)C)cc1)[C@@H](C)[C@H]1O[C@@H](n2cnc3c(N)ncnc32)[C@H](O)[C@@H]1O
2.16	C[C@@H]([C@H]1O[C@@H](n2cnc3c(N)ncnc32)[C@H](O)[C@@H]1O)N(C1CC(CCc2nc3cc(C(C)(C)C)ccc3[nH]2)C1)C1CC(CCc2nc3cc(C(C)(C)C)ccc3[nH]2)C1 (some centres undefined)
